Key:
[1] = test system: CTX-induced sarcopenia mouse model; test: Muscle recovery by muscle type (myosin I, IIa, IIb antibody staining) in CTX-induced sarcopenia mouse model; format: in vivo; conditions: 4 μM oral
Experimental: (§1) In order to construct a CTX-induced sarcopenia mouse model, cardiotoxin (LATOXAN, Portes-les-Valence, France) was dissolved at 1 mg/ml in PBS to make a high-concentration stock solution. To apply to the mice, the stock solution was diluted again in PBS at a final concentration of 0.03 mg/ml and used, and intramuscularly injected into both thigh muscles of the mouse using a 1 ml syringe (24 G) to construct a sarcopenia mouse model.

[2] = Body weight in CTX-induced sarcopenia mouse model; format: in vivo; conditions: oral 50, 100, 500 mg/kg once/day 10 days, 14 days, except decrease in all groups on day 10 without diet supply
Experimental: (§2) Specifically, the Rota Rod was measured before CTX injection, and after CTX was injected (day 0), the drug was orally administered once/day for 10 days, and on days 4, 9, and 14, the Rota Rod was measured, respectively.
For a total of 14 days, the body weights of the mice were measured, and any change in body weight was confirmed.
(§3) Specifically, the grip strength was measured before CTX injection, and after CTX was injected (day 0), the drug was orally administered once/day for 10 days, and on days 4, 9, and 14, the grip strength was measured, respectively.

C57BL/6J mice [3] = test: Single oral dose toxicity: tissue weights at autopsy; format: in vivo, mouse; conditions: single oral 100, 500, 1000 mg/kg; male and female; day 14
Experimental: The body weights were measured before administration, and on 1 day, 3 days, 7 days, and 14 days after administration, and an autopsy was performed on day 14.
In the present disclosure, a single oral dose toxicity test refers to a test that qualitatively and quantitatively examines toxicity in a short period of time when a test substance was administered to test animals in a single dose (including divided doses within 24 hours).

[4] = test system: CTX-induced sarcopenia mouse model; test: Rota Rod balance ability in CTX-induced sarcopenia mouse model; format: in vivo; conditions: oral 50, 100, 500 mg/kg once/day 10 days; days 4, 9, 14; vs (+)PBS group
Experimental: as §2

[5] = test system: CTX-induced sarcopenia mouse model; test: Grip strength recovery in CTX-induced sarcopenia mouse model; format: in vivo; conditions: oral 50, 100, 500 mg/kg once/day 10 days, days 4, 9, 14
Experimental: as §3

C57BL/6J mice [6] = test: Single oral dose toxicity: liver pathology by H&E staining; format: in vivo, mouse; conditions: single oral 100, 500, 1000 mg/kg; male and female; day 14
Experimental: As in Example 7-1, mice with single oral administration were dissected on day 14 after administration, and histochemical toxicity was evaluated. The pathology of the liver was observed through H&E staining on the dissected liver tissue.

C57BL/6J mice [7] = test: Single oral dose toxicity: blood liver, heart and kidney toxicity markers; conditions: single oral 100, 500, 1000 mg/kg; male and female; serum day 14
Experimental: 7-week-old male and female C57BL/6J mice with the body weight of 20±3 g were obtained from DooYeol Biotech (Seoul, South Korea). The mice were bred under constant room temperature and 12 h night/day cycle for 1 week before the experiment, and the mice were fed with a standard rodent diet and were freely taken with water.
The collected blood was left at room temperature for 1 hour to be coagulated, and the serum was isolated by operating a centrifuge (13,000 rpm) for 20 minutes. Blood analysis was performed by dividing liver toxicity, heart toxicity, and kidney toxicity, and the analysis was conducted by requesting DooYeol Biotech (Seoul, Korea).

[8] = test system: CTX-induced sarcopenia mouse model; test: Muscle regeneration by H&E staining in CTX-induced sarcopenia mouse model; format: in vivo; conditions: 4 μM oral, 24 h after CTX; tissue on days 3, 6, 10; vs non-administered control
Experimental: as §1
Specifically, for mouse muscle tissue immunostaining, the muscle tissues of a comparative group and a sulfamethazine-treated group were fixed in 4% paraformaldehyde, washed, and fixed in paraffin. Tissues were cut to a thickness of about […], fixed to a slide, and then stained using an antibody for each muscle type.

[9] = test system: C2C12-PHF20/YY1-promoter-GFP cell line; test: HTS system: GFP (green luminescence) in PHF20-overexpressing myoblasts carrying YY1 promoter-GFP; format: cell-based, mouse; conditions: 1 nM, 10 nM, 100 nM, 1 μM or 10 μM
Excerpt: C2C12 myoblasts, which were stable cells in which PHF20 was overexpressed, were transformed with a plasmid coexisting with a YY1 promoter and GFP, which inhibited muscle differentiation, to prepare a stable cell line. The degree of GFP signal suppression was quantified and measured, and the degree of muscle differentiation was used as a quantitative measurement index (FIG. 1).
Specifically, the C2C12-PHF20/YY1-promoter-GFP cell line according to Example 1 was dispensed in a 96-well plate at 0.5×10^5, cultured for 24 hours, and cells in a 70% confluent state were treated with 250 ng/ml of doxycycline for 24 hours, and then treated with each compound at a final concentration of 10 μM.
For fluorescence intensity, C2C12-PHF20/YY1-promoter-GFP cells were dispensed at 4×10^5 in a 6-well culture plate and cultured for 24 hours. […] Thereafter, the degree of green luminescence was confirmed using GloMax microplate readers explorer (Promega, Madison, Wisconsin, USA).

## sulfamethazine
[1]; day 6
  expression of myosin I: expression of blue-stained myosin I was increased
[1]; day 10
  muscle image by myosin type staining: recovered similarly to that of a normal control group on day 0
[1]; vs control group
  expression of myosin IIa and myosin IIb: increase in expressions of green myosin IIa and red myosin IIb
[2]; Rota Rod study
  body weight: no change in body weight was observed
[2]; grip strength study
  body weight: no change in body weight was observed
C57BL/6J mice [3]
  tissue weight: no singularity in tissue weight
[4]
  balance ability of the Rota Rod: the higher the dose of sulfamethazine, the higher the balance ability of the Rota Rod
[5]
  grip strength, all four paws: grip strength was increased in a sulfamethazine concentration-dependent manner
[5]; vs (+)PBS group
  grip strength, hind legs (2 paws): grip strength of mice increased as the dose of sulfamethazine increased
C57BL/6J mice [6]
  liver pathology (H&E): no specific pathological findings were observed
C57BL/6J mice [7]
  blood liver toxicity, heart toxicity and kidney toxicity markers: no specific phenomena related to liver toxicity, heart toxicity, and kidney toxicity
[8]
  degree of muscle differentiation / regeneration by H&E staining: the muscle was regenerated compared to the control group
[9]
  intensity of green fluorescence by concentration: the higher the treated concentration of sulfamethazine, the weaker the intensity of fluorescence

From patent US12685732B2, “Composition for improving, preventing or treating muscular disorders including sulfonamide-based compounds” (The Industry & Academic Cooperation in Chungnam National …, priority 2022, dated 2026)
